Results taken from patent US10493077B2, “Fused imidazo-piperidine JAK inhibitor compound” (THERAVANCE BIOPHARMA R&D IP, LLC, priority 2017, dated 2019).

Assays:
EPHB6 = target: T1, EPHB6 (Homo sapiens, UniProt O15197); experiment: Kinome screen, EPHB6; type: binding; details: screened at 1 μM
T1 construct: made in house; host or cells: T7 phage in E. coli (BL21-derived) or HEK-293
Experimental: (§1) Kinase-tagged T7 phage strains were grown in parallel in 24-well blocks in an E. coli host derived from the BL21 strain. E. coli were grown to log-phase and infected with T7 phage from a frozen stock (multiplicity of infection=0.4) and incubated with shaking at 32° C. until lysis (90-150 minutes). The lysates were centrifuged (6,000×g) and filtered (0.2 μm) to remove cell debris. The remaining kinases were produced in HEK-293 cells and subsequently tagged with DNA for qPCR detection.
(§2) Streptavidin-coated magnetic beads were treated with biotinylated small molecule ligands for 30 minutes at room temperature to generate affinity resins for kinase assays. The liganded beads were blocked with excess biotin and washed with blocking buffer (SeaBlock (Pierce), 1% BSA, 0.05% Tween 20, 1 mM DTT) to remove unbound ligand and to reduce non-specific phage binding. […] Test compounds were prepared as 40× stocks in 100% DMSO and directly diluted into the assay. All reactions were performed in polypropylene 384-well plates in a final volume of 0.04 ml. […] The beads were then re-suspended in elution buffer (1×PBS, 0.05% Tween 20, 0.5 μM non-biotinylated affinity ligand) and incubated at room temperature with shaking for 30 minutes. The kinase concentration in the eluates was measured by qPCR.

JAK2 = target: T2, JAK2 (Homo sapiens, UniProt O60674); experiment: LanthaScreen JAK biochemical assay, JAK2; details: read-out: JAK 2 pKi (converted)
T2 construct: GST; purchased Life Technologies
Experimental: A panel of four LanthaScreen JAK biochemical assays (JAK1, 2, 3 and Tyk2) were carried in a common kinase reaction buffer (50 mM HEPES, pH 7.5, 0.01% Brij-35, 10 mM MgCl2, and 1 mM EGTA). Recombinant GST-tagged JAK enzymes and a GFP-tagged STAT1 peptide substrate were obtained from Life Technologies.
Serially diluted compound was pre-incubated with each of the four JAK enzymes and the substrate in white 384-well microplates (Corning) at ambient temperature for 1 h. ATP was subsequently added to initiate the kinase reactions in 10 μL total volume, with 1% DMSO. […] The plates were allowed to incubate at ambient temperature for 1 h before being read on the EnVision reader (Perkin Elmer). Emission ratio signals (520 nm/495 nm) were recorded and utilized to calculate the percent inhibition values based on DMSO and background controls.
For dose-response analysis, percent inhibition data were plotted vs. compound concentrations, and IC50 values were determined from a 4-parameter robust fit model with the Prism software (GraphPad Software). Results were expressed as pIC50 (negative logarithm of IC50) and subsequently converted to pKi (negative logarithm of dissociation constant, Ki) using the Cheng-Prusoff equation.

CSF1R = target: T3, CSF1R (Homo sapiens, UniProt P07333); experiment: Kinome screen, CSF1R; type: binding; details: screened at 1 μM
T3 construct: made in house; host or cells: T7 phage in E. coli (BL21-derived) or HEK-293
Experimental: as §1, §2

[1] = tested on: IL-2 stimulated pSTAT5 in CD4+ T cells; experiment: Cellular JAK potency assay: inhibition of IL-2 stimulated pSTAT5 in CD4+ T cells; type: cell-based; details: 0.5 h; CD4+ T cells in human PBMCs, 30 min stimulation; read-out: pIC50, inhibition of IL-2 stimulated pSTAT5 (converted)
Experimental: The potency of the test compound for inhibition of interleukin-2 (IL-2)/anti-CD3 stimulated STAT5 phosphorylation was measured in CD4-positive (CD4+) T cells in human peripheral blood mononuclear cells (PBMCs) isolated from human whole blood (Stanford Blood Center) using flow cytometry. Because IL-2 signals through JAK, this assay provides a measure of JAK cellular potency.
CD4+ T cells were identified using a […] (PE) conjugated anti-CD4 antibody (Clone RPA-T4, BD Biosciences), while an Alexa Fluor 647 conjugated anti-pSTAT5 antibody (pY694, Clone 47, BD Biosciences) was used to detect STAT5 phosphorylation. […]
(2) After cytokine stimulation, cells were fixed with pre warmed fix solution (200 μL; BD Biosciences) for 10 min at 37° C., 5% CO2, washed twice with DPBS buffer (1 mL, Life Technologies), and resuspended in ice cold Perm Buffer III (1000 μL, BD Biosciences) for 30 min at 4° C. […] After incubation, cells were washed twice in FACS buffer before being analyzed using a LSRII flow cytometer (BD Biosciences). To determine the inhibitory potency of the test compound in response to IL-2/anti-CD3, the median fluorescent intensity (MFI) of pSTAT5 was measured in CD4+ T cells. IC50 values were determined from analysis of the inhibition curves of MFI vs compound concentration. Data are expressed as pIC50 (negative decadic logarithm IC50) values.

[2] = tested on: IL-6 stimulated CCL2 (MCP-1) in human PBMCs; experiment: Cellular JAK potency assay: inhibition of IL-6 stimulated CCL2 (MCP-1) in human PBMCs; type: cell-based; details: PBMC, 48 h stimulation, read-out: pIC50, inhibition of IL-6 stimulated CCL2 (MCP-1) (converted)
Experimental: The potency of the test compound for inhibition of interleukin-6 (IL-6) stimulated CCL2 (MCP-1) production was measured in human peripheral blood mononuclear cells (PBMCs) isolated from human whole blood (Stanford Blood Center). Because IL-6 signals through JAK, this assay provides a distal measure of JAK cellular potency.
(1) The protocol of Assay 3 paragraph (1) was followed up to the incubation with test compounds. In the present assay, after test compounds were added to wells and incubated, IL-6 (R&D Systems; final concentration 10 ng/ml) in pre-warmed assay media (50 μL) was added.
(2) After cytokine stimulation for 48 h, cells were centrifuged at 500 g for 5 min and supernatants were removed and frozen at −80° C. To determine the inhibitory potency of the test compound in response to IL-6, supernatant CCL2 (MCP-1) concentrations were measured via ELISA (R&D Systems). IC50 values were determined from analysis of the inhibition curves of concentration of CCL2/MCP-1 vs compound concentration. Data are expressed as pIC50 (negative decadic logarithm IC50) values.

T1 sequence (O15197 32-1021): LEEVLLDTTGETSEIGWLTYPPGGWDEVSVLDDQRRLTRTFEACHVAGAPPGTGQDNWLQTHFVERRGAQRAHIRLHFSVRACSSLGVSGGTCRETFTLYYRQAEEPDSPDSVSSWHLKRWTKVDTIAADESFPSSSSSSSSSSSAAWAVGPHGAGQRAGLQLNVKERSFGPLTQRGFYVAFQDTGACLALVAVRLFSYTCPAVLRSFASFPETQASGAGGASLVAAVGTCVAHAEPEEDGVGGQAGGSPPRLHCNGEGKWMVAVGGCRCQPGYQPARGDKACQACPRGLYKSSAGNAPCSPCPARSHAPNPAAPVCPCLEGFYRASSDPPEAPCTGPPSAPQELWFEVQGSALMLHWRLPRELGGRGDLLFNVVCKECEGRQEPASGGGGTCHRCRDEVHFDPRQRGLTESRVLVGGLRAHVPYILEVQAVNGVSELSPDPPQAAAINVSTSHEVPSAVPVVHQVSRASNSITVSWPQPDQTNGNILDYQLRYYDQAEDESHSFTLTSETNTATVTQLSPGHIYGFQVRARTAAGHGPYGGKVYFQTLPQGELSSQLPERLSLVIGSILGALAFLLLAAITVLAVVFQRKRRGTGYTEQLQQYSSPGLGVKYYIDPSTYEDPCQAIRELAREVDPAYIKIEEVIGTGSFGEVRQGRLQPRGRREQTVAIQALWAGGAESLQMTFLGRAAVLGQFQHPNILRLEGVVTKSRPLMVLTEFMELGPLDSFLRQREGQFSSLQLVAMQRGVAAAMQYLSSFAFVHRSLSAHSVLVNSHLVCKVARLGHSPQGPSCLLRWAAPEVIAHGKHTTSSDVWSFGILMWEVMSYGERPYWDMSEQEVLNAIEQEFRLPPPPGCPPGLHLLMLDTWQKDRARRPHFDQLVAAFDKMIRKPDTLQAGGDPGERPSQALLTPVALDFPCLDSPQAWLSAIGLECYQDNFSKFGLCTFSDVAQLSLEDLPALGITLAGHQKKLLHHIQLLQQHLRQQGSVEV
T3 sequence (P07333 20-972): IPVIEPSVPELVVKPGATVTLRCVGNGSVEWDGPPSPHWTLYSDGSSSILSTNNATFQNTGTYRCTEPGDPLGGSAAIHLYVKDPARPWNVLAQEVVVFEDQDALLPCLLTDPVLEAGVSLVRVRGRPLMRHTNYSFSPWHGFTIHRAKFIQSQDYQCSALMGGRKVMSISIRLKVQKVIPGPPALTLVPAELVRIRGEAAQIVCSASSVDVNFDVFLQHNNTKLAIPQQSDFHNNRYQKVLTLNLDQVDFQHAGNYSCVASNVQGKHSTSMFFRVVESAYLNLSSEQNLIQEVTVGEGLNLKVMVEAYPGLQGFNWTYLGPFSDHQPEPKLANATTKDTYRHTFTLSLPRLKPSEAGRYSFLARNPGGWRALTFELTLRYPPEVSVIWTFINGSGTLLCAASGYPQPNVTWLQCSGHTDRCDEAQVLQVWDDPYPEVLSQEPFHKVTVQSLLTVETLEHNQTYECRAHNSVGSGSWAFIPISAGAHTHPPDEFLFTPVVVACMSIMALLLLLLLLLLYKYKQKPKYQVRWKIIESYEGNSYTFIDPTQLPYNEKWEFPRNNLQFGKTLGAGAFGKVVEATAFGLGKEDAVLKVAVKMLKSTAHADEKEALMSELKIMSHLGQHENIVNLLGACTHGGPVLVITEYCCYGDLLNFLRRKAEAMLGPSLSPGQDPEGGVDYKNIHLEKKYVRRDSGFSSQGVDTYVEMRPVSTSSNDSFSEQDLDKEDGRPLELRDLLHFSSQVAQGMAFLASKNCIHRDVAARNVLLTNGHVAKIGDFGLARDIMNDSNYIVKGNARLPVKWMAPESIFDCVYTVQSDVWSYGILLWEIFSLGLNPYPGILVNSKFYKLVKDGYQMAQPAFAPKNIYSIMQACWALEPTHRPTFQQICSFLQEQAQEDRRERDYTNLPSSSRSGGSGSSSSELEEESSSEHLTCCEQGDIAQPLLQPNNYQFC
T2 sequence (O60674 whole entry): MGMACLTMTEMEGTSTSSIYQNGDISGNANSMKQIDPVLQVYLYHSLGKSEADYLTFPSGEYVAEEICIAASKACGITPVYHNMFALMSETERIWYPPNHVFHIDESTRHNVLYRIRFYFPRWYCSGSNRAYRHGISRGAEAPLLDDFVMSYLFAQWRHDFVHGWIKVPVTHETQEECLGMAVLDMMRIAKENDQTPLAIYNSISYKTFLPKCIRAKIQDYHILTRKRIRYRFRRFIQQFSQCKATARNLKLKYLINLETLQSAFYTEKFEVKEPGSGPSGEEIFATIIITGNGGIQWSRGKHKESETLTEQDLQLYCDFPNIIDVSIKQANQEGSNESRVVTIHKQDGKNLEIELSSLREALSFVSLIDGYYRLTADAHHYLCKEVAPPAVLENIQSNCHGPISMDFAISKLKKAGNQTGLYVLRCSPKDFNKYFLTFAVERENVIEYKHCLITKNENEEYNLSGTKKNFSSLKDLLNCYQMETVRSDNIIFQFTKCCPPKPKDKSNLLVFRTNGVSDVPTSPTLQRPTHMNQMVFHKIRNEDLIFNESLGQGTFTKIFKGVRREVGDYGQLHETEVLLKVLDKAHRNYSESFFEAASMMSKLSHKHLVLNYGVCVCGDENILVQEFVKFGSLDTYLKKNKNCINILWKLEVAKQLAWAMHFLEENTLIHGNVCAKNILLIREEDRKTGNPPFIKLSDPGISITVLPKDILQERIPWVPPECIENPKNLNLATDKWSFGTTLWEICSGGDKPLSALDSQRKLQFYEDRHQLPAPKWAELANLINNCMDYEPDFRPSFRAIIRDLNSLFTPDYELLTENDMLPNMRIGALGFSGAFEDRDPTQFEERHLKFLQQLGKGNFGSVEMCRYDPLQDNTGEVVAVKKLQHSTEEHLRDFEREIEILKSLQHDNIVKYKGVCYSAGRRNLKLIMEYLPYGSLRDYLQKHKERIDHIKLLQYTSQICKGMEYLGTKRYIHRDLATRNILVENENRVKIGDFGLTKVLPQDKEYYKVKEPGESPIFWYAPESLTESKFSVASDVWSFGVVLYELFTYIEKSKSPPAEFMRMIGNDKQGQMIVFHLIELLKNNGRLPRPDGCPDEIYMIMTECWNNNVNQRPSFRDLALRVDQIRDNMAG

## CCc1cc(O)c(F)cc1-c1cc(F)c2c(-c3nc4c([nH]3)CCN(C(=O)CN3CCOCC3)C4)n[nH]c2c1 [Compound 1, 1-(2-(6-(2-ethyl-5-fluoro-4-hydroxyphenyl)-4-fluoro-1H-indazol-3-yl)-1,4,6,7-tetrahydro-5H-imidazo[4,5-c]pyridin-5-yl)-2-morpholinoethan-1-one]
EPHB6
  inhibition at 1 µM: 88%
JAK2
  Ki: 0.0251 nM
CSF1R
  inhibition at 1 µM: 98%
[1]
  IC50: ~20 nM
[2]
  IC50: ~398 nM
